Values quoted from earlier work as cited in US20100273258A1, “Interactive Microenvironment System” (The Ohio State University, priority 2009, published 2010).

Assays:
[1] = test system: human breast cancer cell lines
[2] = test system: DNA methylation of cancer suppressor genes; conditions: versus 5-Aza-2′-deoxycystidine and Trichostatin A (TSA)

Row | Structure (SMILES) | anti-proliferative effects ([1]; MCF-7, MCF-7Adr and MDA-MB-231 human breast cancer cell lines) | anti-human breast cancer proliferative potency relative to racemic (±)-GP ([1]; previously published data) | demethylating agent compared with clinical drugs [2]
1 | Cc1cc2c(C(C)C)c(O)c(O)c(C=O)c2c(O)c1-c1c(C)cc2c(C(C)C)c(O)c(O)c(C=O)c2c1O (racemic) [(±)-GP] | anti-proliferative effects | – | –
2 | Cc1cc2c(C(C)C)c(O)c(O)c(C=O)c2c(O)c1-c1c(C)cc2c(C(C)C)c(O)c(O)c(C=O)c2c1O [(−)-GP] | – | 10 fold | much better demethylating agent
